Patent publication US20250296909A1, “NOVEL BENZENE DERIVATIVE AND IMMUNOSUPPRESSION-RELATED USE THEREOF” (PROVIBIO CO., LTD., priority 2021, published 2025)

Tests used:
[1] = test system: T lymphocyte cell line Jurkat E6-1; assay: Cytotoxicity experiment (CCK-8, relative cell survival); assay type: cell-based; conditions: 24 hours, untreated cells = 100%
Procedure, shortened: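 Jurkat cells in RPMI-1640 with 10% FBS were exposed to compounds at several concentrations for 24 h at 37 °C, 5% CO2. CCK-8 added for 2 h, absorbance read at 450 nm; survival expressed relative to untreated cells (100%).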

spleen T cells [2] = assay: T cell proliferation inhibition (CFSE, FACS), CD3/CD28-activated spleen T cells; assay type: cell-based, C57BL/6 mice; conditions: Table 2, 3 days, relative to CD3/CD28+DMSO; for inhibition at 10 µM / inhibition at 30 µM / inhibition at 50 µM: Mus musculus, T-cell, 72 h, read-out: Proliferation inhibition rate (%)
Procedure, shortened: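 CFSE-labelled splenic T cells (CD90.2-isolated, 7-week C57BL/6 mice), 2×10^5/well, activated with anti-CD3/CD28 (0.5 μg/mL each) plus compound at 10, 30 or 50 μM in triplicate for 3 days at 37 °C. CFSE dilution by flow cytometry; inhibition % relative to CD3/CD28+DMSO proliferation.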

spleen T cells [3] = assay: Cytokine secretion by anti-CD3/CD28-activated T cells (Cytometric Bead Array); assay type: cell-based, C57BL/6 mice; conditions: 30 μM; for secretion of IL-2: 24 hours after treatment, FIG. 3; for secretion of IFN-γ / secretion of IL-17A / secretion of TNF-α: 72 hours after treatment
Protocol: To confirm the effect of compounds of the present invention on the secretion of cytokines by T cells, the following experiment was conducted.
Spleens were harvested and minced from C57BL/6 mice at 7 weeks of age, and single cells were isolated using a strainer (40 μm pore size, SPL). Red blood cells were removed using ACK (Ammonium-Chloride-Potassium) lysis buffer to isolate only leukocytes. These were then reacted with 10 v/v % CD90.2 microbeads (130-121-278, Miltenyi Biotech.) at 4° C. for 20 minutes, resulting in the isolation of spleen T cells from magnetic-based purification. The T cells were cultured in a 96-well plate at an amount of 2×10^5 cells/well. For T cell activation, each well was treated with anti-CD3/CD28 antibodies at a concentration of 1 μg/mL. Subsequently, Vehicle (DMSO) and compounds (Compound 14, Compound 19, Compound 26, Compound 31, Compound 35, Compound 40, Compound 41, Compound 56, Compound 69, Compound 75) at a concentration of 30 μM were treated in each well, and it was cultured at 37° C. in a 5% CO2 incubator. After 24 and 72 hours, the T cell culture medium was taken, and centrifugation was performed at 13,000 rpm for 10 minutes to obtain the supernatant.
To measure the concentration of cytokines present in the T cell culture medium, Mouse Th1/Th2/Th17 Cytokine CBA Kit (Cytometric Bead Array kit) 560485 from BD Science was utilized for flow cytometry analysis. The secretion levels of IL-2 at 24 hours after each drug treatment, and IFN-γ, TNF-α, and IL-17A at 72 hours were measured after each drug treatment.

[4] = test system: psoriasis mouse animal model; assay: Psoriasis mouse animal model (imiquimod-induced); assay type: in vivo, BALB/c mice; conditions: 40 mg/kg intraperitoneally twice a day
From the text: To confirm the therapeutic effect of compounds according to the present invention on psoriasis, a psoriasis animal model was established to evaluate the alleviation of skin lesions and changes in immune cell profiles by administering Compound 69 or Compound 83 via injection.
To establish a psoriasis mouse animal model, BALB/c mice (7 weeks old, 20 g, female) were purchased from Hana Biotech Co. and allowed to acclimate to the housing environment for one week. Afterward, the fur on the dorsal area of the mice was initially shaved using a shaver, followed by complete removal with depilatory cream (Nicrin Cream, comprising thioglycolic acid 80%, manufactured by ILDONG Pharmaceutical CO., LTD). The mice were then housed for 24 hours to confirm any wounds on their backs.
Subsequently, in order to verify the preventive and therapeutic effects of compounds according to the present invention on psoriasis, five experimental groups were established as shown in FIG. 7 and Table 5. From the second to the fifth group, Aldara® cream was applied once daily for two weeks (14 days, total of 14 applications) at a dose of 80 mg (imiquimod, 4 mg) per mouse to induce psoriasis. Furthermore, to compare the preventive and therapeutic effects of compounds according to the present invention (Compound 69 and Compound 83) on psoriasis, 40 mg/kg of the compound per mouse was dissolved in DMSO corresponding to 10% of the dosing volume, and then diluted in a mixture of Cremophor EL-PEG 400-distilled water to achieve a final ratio of DMSO: Cremophor EL:PEG 400:distilled water to 1:1:4:4 (v/v/v/v). Subsequently, the respective injections were intraperitoneally administered at a dose of 100 μL per mouse, twice a day with a 12-hour interval. For the Vehicle control group, injections excluding the drug but comprising the vehicle solution (DMSO: Cremophor EL:PEG 400:distilled water=1:1:4:4 (v/v/v/v)) were administered at a dose of 100 μL per mouse, twice a day with a 12-hour interval.
To assess the impact of each compound on immune cells in vivo, the spleens of mice treated with each compound were harvested, and cells were extracted, and cells were suspended in MACS buffer (2 mM EDTA, 0.5% FBS, 137 mM NaCl, 2.7 mM KCl, 10 mM Na2HPO4, 1.8 mM KH2PO4, Miltenyi Biotech.). For flow cytometry analysis, each mouse's splenocytes were aliquoted at 5×10^5 cells per FACS tube (5 mL round tube, Falcon). To prevent non-specific antibody binding, each tube was treated with 1 μg/mL of anti-mouse CD16/CD32 (InVivoMAb) for 30 minutes, followed by centrifugation at 13,000 rpm for 5 minutes, and resuspended in 100 μL of MACS buffer. Subsequent experiments were conducted depending on the type of immune cells to be examined.
(§1) For B cells, each FACS tube was stained with 1 μg/mL of FITC-conjugated anti-B220 antibody (eBioscience™) at 4° C. for 30 minutes, followed by washing with 2 mL of MACS buffer. Subsequently, each tube was centrifuged at 15,000 rpm for 5 minutes, the supernatant was removed, and the precipitated cells were fixed using 200 μL of 4% paraformaldehyde solution.
For T cells, each FACS tube was stained with 1 μg/mL of PerCP-Cy5.5-conjugated anti-CD3 antibody (Biolegend), FITC-conjugated anti-CD8 antibody (eBioscience™) and Cy7-conjugated anti-CD4 antibody (eBioscience™) at 4° C. for 30 minutes, followed by washing with 2 mL of MACS buffer. Subsequently, each tube was centrifuged at 15,000 rpm for 5 minutes, the supernatant was removed, and the precipitated cells were fixed using 200 μL of 4% paraformaldehyde solution.
as §1, with “macrophages,” for “B cells,”, “anti-CD11b” for “anti-B220”

[5] = flow cytometry, versus psoriasis groups, FIG. 10

CCCCCCCCCCCCNS(=O)(=O)c1c(C)cc(C)cc1C [Compound 41]
Relative cell survival rate (%) ([1]; 10 μM): 85% | Relative cell survival rate (%) ([1]; 20 μM): 83% | Relative cell survival rate (%) ([1]; 30 μM): 82% | Relative cell survival rate (%) ([1]; 50 μM): 80% | Proliferation inhibition rate (%) (spleen T cells [2]; 10 μM): 80% | Proliferation inhibition rate (%) (spleen T cells [2]; 30 μM): 100% | Proliferation inhibition rate (%) (spleen T cells [2]; 50 μM): 100% | secretion of IL-2 (spleen T cells [3]): significant decrease | secretion of IFN-γ (spleen T cells [3]): significant decrease | secretion of IL-17A (spleen T cells [3]): significant decrease | secretion of TNF-α (spleen T cells [3]): significant decrease

CCCCCCCCCCCCNC(=O)CNC(=O)c1ccccc1Cl [Compound 56]
Relative cell survival rate (%) ([1]; 10 μM): 92% | Relative cell survival rate (%) ([1]; 20 μM): 91% | Relative cell survival rate (%) ([1]; 30 μM): 89% | Relative cell survival rate (%) ([1]; 50 μM): 86% | Proliferation inhibition rate (%) (spleen T cells [2]; 10 μM): 26% | Proliferation inhibition rate (%) (spleen T cells [2]; 30 μM): 50% | Proliferation inhibition rate (%) (spleen T cells [2]; 50 μM): 62% | secretion of IL-2 (spleen T cells [3]): significant decrease | secretion of IFN-γ (spleen T cells [3]): significant decrease | secretion of IL-17A (spleen T cells [3]): significant decrease | secretion of TNF-α (spleen T cells [3]): significant decrease

CC(C)=CCC/C(C)=C/CNC(=O)c1cccnc1N [Compound 75]
Relative cell survival rate (%) ([1]; 10 μM): 97% | Relative cell survival rate (%) ([1]; 20 μM): 95% | Relative cell survival rate (%) ([1]; 30 μM): 86% | Relative cell survival rate (%) ([1]; 50 μM): 85% | inhibition at 10 µM (spleen T cells [2]; 10 μM): 95% | inhibition at 30 µM (spleen T cells [2]; 30 μM): 98% | inhibition at 50 µM (spleen T cells [2]; 50 μM): 98% | secretion of IL-2 (spleen T cells [3]): significant decrease | secretion of IFN-γ (spleen T cells [3]): significant decrease | secretion of IL-17A (spleen T cells [3]): significant decrease | secretion of TNF-α (spleen T cells [3]): significant decrease

O=C(NCCCCCCCCCCCCO)c1ccccc1Br [Compound 83]
Relative cell survival rate (%) ([1]; 10 μM): 102% | Relative cell survival rate (%) ([1]; 20 μM): 105% | Relative cell survival rate (%) ([1]; 30 μM): 87% | Relative cell survival rate (%) ([1]; 50 μM): 77% | inhibition at 10 µM (spleen T cells [2]; 10 μM): 0% | inhibition at 30 µM (spleen T cells [2]; 30 μM): 63% | inhibition at 50 µM (spleen T cells [2]; 50 μM): 100% | skin lesions (erythema, thickness, exfoliation of back skin) ([4]; 14 days, FIG. 8): either minimally present or hardly observed | hyperkeratosis, parakeratosis, irregular acanthosis, infiltration of inflammatory cells (H&E staining) ([4]; 14 days, FIG. 9): either minimally present or hardly observed | proportion of B cells in the spleen [4, 5]: increase | proportion of CD11b granulocytes in the spleen [4, 5]: decreased | proportion of T cells in the spleen [4, 5]: increase
